Results from patent publication US11279733B2, “Peptide antibiotics” (priority 2017, dated 2022).
Converted amounts (≈) assume the structure as drawn. Where two headings read alike, the source gives them in different places. Positions of bridges follow the written chain, without caps; N, C: chain ends. Non-standard residues stand in square brackets, D forms with d. Residues, ends and D or L forms follow the SMILES beside them. *: point of attachment. Decanoyl(3R-OH) = CCCCCCC[C@@H](O)CC(=O)*; Phe(4-NH2) = Nc1ccc(C[C@H](N)C(=O)O)cc1; d3Pal = N[C@H](Cc1cccnc1)C(=O)O; X3 = CCCCCCCCCCCC(O)CC(=O)*; X4 = CCCCCOc1ccc(C(=O)*)cc1; dDab = NCC[C@@H](N)C(=O)O; Dab = NCC[C@H](N)C(=O)O

Experiments:
A. baumannii GN_093 PmxR = conditions: GN 093 PmxR
Experimental: (§1) Bacteria were either obtained from American Type Culture Collection (ATCC; Manassas, Va., USA) or independent academic clinical isolate collections, as listed in Table 18 below. Bacteria were cultured in Nutrient broth (NB; Bacto Laboratories, catalogue No. 234000) or Mueller Hinton broth (MHB; Bacto Laboratories, catalogue No. 211443) at 37° C. overnight with shaking (˜180 RPM). A sample of each culture was then diluted 50-fold in fresh MHB and incubated at 37° C. for 2-3 h with shaking (˜180 RPM). Compound stock solutions were prepared as 0.64 mg/mL or 2.56 mg/mL in water. The compounds, at twice the final desired concentration, were serially diluted 2-fold across the wells of 96-well plates (Polystyrene, Corning, catalogue No. 3370). Mid-log phase bacterial cultures (after 2-3 h incubation) were diluted to a final concentration of 1×10^6 colony forming units (CFU)/mL, and 50 μL was added to each well giving a final cell density of 5×10^5 and a compound concentration range of 32 μg/mL to 0.015 μg/mL (128-0.06 μg/mL against P. aeruginosa PA9704).

[1] = system: P. aeruginosa GN_043, PmxR
Experimental: as §1

K. pneumoniae ATCC 13883 = conditions: ATCC 13883
Experimental: as §1

P. aeruginosa ATCC 27853 = conditions: ATCC 27853
Experimental: as §1

A. baumannii ATCC 19606 = conditions: ATCC 19606
Experimental: as §1

[2] = system: K. pneumoniae GN_106, PmxR; conditions: GN 106, PmxR
Experimental: as §1

E. coli ATCC 25922 = conditions: ATCC 25922
Experimental: as §1

[3] = system: K. pneumoniae ATCC 700603, MDR; conditions: ATCC 700603
Experimental: as §1

[4] = system: K. pneumoniae ATCC BAA-2146, NDM-1 pos; conditions: ATCC BAA-2146
Experimental: as §1

[5] = system: P. aeruginosa GN_105, PmxR; conditions: GN 105, PmxR
Experimental: as §1

[6] = system: K. pneumoniae GN_102 PmxR; conditions: GN 102 PmxR
Experimental: as §1

[7] = system: S. aureus ATCC 25923, MSSA; conditions: ATCC 25923
Experimental: as §1

Row | SMILES | MIC A. baumannii GN_093 PmxR (A. baumannii GN_093 PmxR) [µg/mL] | MIC P. aeruginosa GN_043, PmxR [1] [µg/mL] | MIC P. aeruginosa GN_043, PmxR ([1]; polymyxin-resistant) [µg/mL] | MIC K. pneumoniae ATCC 13883 (K. pneumoniae ATCC 13883) [µg/mL] | MIC, K. pneumoniae ATCC 13883 (K. pneumoniae ATCC 13883) [µg/mL] | MIC P. aeruginosa ATCC 27853 (P. aeruginosa ATCC 27853) [µg/mL] | MIC, P. aeruginosa ATCC 27853 (P. aeruginosa ATCC 27853) [µg/mL] | MIC A. baumannii ATCC 19606 (A. baumannii ATCC 19606) [µg/mL] | MIC, A. baumannii ATCC 19606 (A. baumannii ATCC 19606) [µg/mL] | MIC K. pneumoniae GN_106, PmxR [2] [µg/mL] | MIC E. coli ATCC 25922 (E. coli ATCC 25922) [µg/mL] | MIC, E. coli ATCC 25922 (E. coli ATCC 25922) [µg/mL] | MIC K. pneumoniae ATCC 700603, MDR [3] [µg/mL] | MIC, K. pneumoniae ATCC 700603, MDR [3] [µg/mL] | MIC K. pneumoniae ATCC BAA-2146, NDM-1 pos [4] [µg/mL] | MIC, K. pneumoniae ATCC BAA-2146, NDM-1 pos [4] [µg/mL] | MIC P. aeruginosa GN_105, PmxR [5] [µg/mL] | MIC K. pneumoniae GN_102 PmxR [6] [µg/mL] | MIC S. aureus ATCC 25923, MSSA [7] [µg/mL] | MIC P. aeruginosa GN_043, PmxR ([1]; Table 6, polymyxin-resistant) [µg/mL] | also measured
1 | CCCCCCC[C@@H](O)CC(=O)N[C@H](CCN)C(=O)N[C@H]1CCNC(=O)[C@H](CC(C)C)NC(=O)[C@H](CCN)NC(=O)[C@H](CCN)NC(=O)[C@H](CC(C)C)NC(=O)[C@@H](Cc2ccccc2)NC(=O)[C@H](CCN)NC1=O [Octapeptin C4 (631), 3(R)OH-nC9CO-D-Dab-cyc[L-Dab-L-Dab-D-Phe-L-Leu-L-Dab-L-Dab-L-Leu], reference compound] ({Decanoyl(3R-OH)}-[dDab][Dab][Dab][dF]L[Dab][Dab]L; lactam 2-C) | 4 (≈ 3.83 µM) | 2 (≈ 1.92 µM) | 2 (≈ 1.92 µM) | 8 (≈ 7.66 µM) | 8 (≈ 7.66 µM) | 2 (≈ 1.92 µM) | 2 (≈ 1.92 µM) | 4 (≈ 3.83 µM) | 4 (≈ 3.83 µM) | 4 (≈ 3.83 µM) | 4 (≈ 3.83 µM) | 4 (≈ 3.83 µM) | 8 (≈ 7.66 µM) | 8 (≈ 7.66 µM) | 8 (≈ 7.66 µM) | 8 (≈ 7.66 µM) | 2 (≈ 1.92 µM) | 2 (≈ 1.92 µM) | 16 (≈ 15.3 µM) |  | MIC A. baumannii Cl Ptyela 10073 4512:2, PmxR (A. baumannii GN_093 PmxR): 4 µg/mL (≈ 3.83 µM); MIC, A. baumannii Cl Ptyela 10073 4512:2, PmxR (A. baumannii GN_093 PmxR): 4 µg/mL (≈ 3.83 µM); MIC P. aeruginosa GN_043, PmxR ([1]; P. aeruginosa GN_043, PmxR): 2 µg/mL (≈ 1.92 µM); MIC, P. aeruginosa FADDI-PA070, PmxR ([1]; Table 5, polymyxin-resistant): 2 µg/mL (≈ 1.92 µM); MIC, P. aeruginosa FADDI-PA070, PmxR ([1]; strain name as in Table 11): 2 µg/mL (≈ 1.92 µM); MIC K. pneumoniae Cl 183-16357-20352, PmxR [2]: 4 µg/mL (≈ 3.83 µM); MIC, K. pneumoniae Cl 138-16347-20362, PmxR [2]: 4 µg/mL (≈ 3.83 µM); MIC P. aeruginosa PA9704, PmxR [5]: 2 µg/mL (≈ 1.92 µM); MIC, P. aeruginosa PA9704, PmxR [5]: 2 µg/mL (≈ 1.92 µM); MIC K. pneumoniae Cl Koprana 10065 0661:1 PmxR [6]: 2 µg/mL (≈ 1.92 µM); MIC, K. pneumoniae Cl Koprana 10065 0661:1, PmxR [6]: 2 µg/mL (≈ 1.92 µM); MIC, S. Aureus ATCC 25923, MSSA [7]: 16 µg/mL (≈ 15.3 µM)
2 | CCCCCCC[C@@H](O)CC(=O)N[C@H](Cc1cccnc1)C(=O)N[C@H]1CCNC(=O)[C@H](CC(C)C)NC(=O)[C@H](CCN)NC(=O)[C@H](CCN)NC(=O)[C@H](CC(C)C)NC(=O)[C@@H](Cc2ccccc2)NC(=O)[C@H](CCN)NC1=O [compound 6445, 3(R)OH-nC9CO-D-3PyPhe-cyc[L-Dab-L-Dab-D-Phe-L-Leu-L-Dab-L-Dab-L-Leu]] ({Decanoyl(3R-OH)}-[d3Pal][Dab][Dab][dF]L[Dab][Dab]L; lactam 2-C) | >32 |  |  |  | 4 (≈ 3.66 µM) |  | 16 (≈ 14.6 µM) |  | 32 (≈ 29.3 µM) | 4 (≈ 3.66 µM) |  | 8 (≈ 7.32 µM) |  | 8 (≈ 7.32 µM) |  | 8 (≈ 7.32 µM) | 8 (≈ 7.32 µM) | 8 (≈ 7.32 µM) |  | 8 (≈ 7.32 µM) | MIC, S. aureus ATCC 25923, MSSA [7]: >32 µg/mL
3 | CCCCCCC[C@@H](O)CC(=O)N[C@H](CCN)C(=O)N[C@H]1CCNC(=O)[C@H](CC(C)C)NC(=O)[C@H](Cc2ccc(N)cc2)NC(=O)[C@H](CCN)NC(=O)[C@H](CC(C)C)NC(=O)[C@@H](Cc2ccccc2)NC(=O)[C@H](CCN)NC1=O [compound 8644, 3(R)OH-nC9CO-D-Dab-cyc[L-Dab-L-DAB-D-Phe-L-Leu-L-Dab-L-4NH2Phe-L-Leu]] ({Decanoyl(3R-OH)}-[dDab][Dab][Dab][dF]L[Dab][Phe(4-NH2)]L; lactam 2-C) | >32 |  | 8 (≈ 7.23 µM) | 8 (≈ 7.23 µM) |  | 8 (≈ 7.23 µM) |  | 16 (≈ 14.5 µM) |  | 8 (≈ 7.23 µM) | 16 (≈ 14.5 µM) |  | 8 (≈ 7.23 µM) |  | 4 (≈ 3.62 µM) |  | 8 (≈ 7.23 µM) | 2 (≈ 1.81 µM) | 32 (≈ 28.9 µM) |  | 
4 | CCCCCCC[C@@H](O)CC(=O)NCC(=O)N[C@H]1CCNC(=O)[C@H](CC(C)C)NC(=O)[C@H](CCN)NC(=O)[C@H](CCN)NC(=O)[C@H](CC(C)C)NC(=O)[C@@H](Cc2ccccc2)NC(=O)[C@H](CCN)NC1=O [compound 6446, 3(R)OH-nC9CO-Gly-cyc[L-Dab-L-Dab-D-Phe-L-Leu-L-Dab-L-Dab-L-Leu]] ({Decanoyl(3R-OH)}-G[Dab][Dab][dF]L[Dab][Dab]L; lactam 2-C) | 32 (≈ 32 µM) |  |  |  | 8 (≈ 7.99 µM) |  | 4 (≈ 3.99 µM) |  | 32 (≈ 32 µM) | 8 (≈ 7.99 µM) |  | 8 (≈ 7.99 µM) |  | 8 (≈ 7.99 µM) |  | 8 (≈ 7.99 µM) | 4 (≈ 3.99 µM) | 4 (≈ 3.99 µM) |  | 4 (≈ 3.99 µM) | MIC, S. aureus ATCC 25923, MSSA [7]: >32 µg/mL
5 | CCCCCCCCCCCC(O)CC(=O)N[C@H](CCN)C(=O)N[C@H]1CCNC(=O)[C@H](CC(C)C)NC(=O)[C@H](CCN)NC(=O)[C@H](CCN)NC(=O)[C@H](CC(C)C)NC(=O)[C@@H](Cc2ccccc2)NC(=O)[C@H](CCN)NC1=O (stereo partly drawn) [compound 5015, 3OH-nC13CO-D-Dab-cyc[L-Dab-L-Dab-D-Phe-L-Leu-L-Dab-L-Dab-L-Leu]] (X3-[dDab][Dab][Dab][dF]L[Dab][Dab]L; lactam 2-C) | 8 (≈ 7.27 µM) | 4 (≈ 3.63 µM) |  | 4 (≈ 3.63 µM) |  | 4 (≈ 3.63 µM) |  | 4 (≈ 3.63 µM) |  | 4 (≈ 3.63 µM) | 4 (≈ 3.63 µM) |  | 8 (≈ 7.27 µM) |  | 8 (≈ 7.27 µM) |  | 4 (≈ 3.63 µM) | 8 (≈ 7.27 µM) | 4 (≈ 3.63 µM) |  | 
6 | CCCCCOc1ccc(C(=O)N[C@H](CCN)C(=O)N[C@H]2CCNC(=O)[C@H](CC(C)C)NC(=O)[C@H](CCN)NC(=O)[C@H](CCN)NC(=O)[C@H](CC(C)C)NC(=O)[C@@H](Cc3ccccc3)NC(=O)[C@H](CCN)NC2=O)cc1 [compound 6528, 4-(pentyloxy)benzoic acid-D-Dab-cyc[L-Dab-L-Dab-D-Phe-L-Leu-L-Dab-L-Dab-L-Leu]] (X4-[dDab][Dab][Dab][dF]L[Dab][Dab]L; lactam 2-C) | 32 (≈ 30.1 µM) | 1 (≈ 0.94 µM) |  | 8 (≈ 7.52 µM) |  | 1 (≈ 0.94 µM) |  | >32 |  | 32 (≈ 30.1 µM) | 2 (≈ 1.88 µM) |  | 16 (≈ 15 µM) |  | 8 (≈ 7.52 µM) |  | 4 (≈ 3.76 µM) | >32 | 32 (≈ 30.1 µM) |  | 
